# According to PubChem BioAssay (NCI):
#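 The compound was tested at five concentrations on cells cultured in 96-well plates, with a 48-hour exposure period. Abbreviation: GI50, concentration required for 50% inhibition of growth. TGI: total growth inhibition.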
# Key:
# Test in all cases: NCI tumour cell line growth inhibition, 48 h
# 786-0 renal = tested on: 786-0 renal
# KM20L2 colon = tested on: KM20L2 colon
# LXFL 529 NSCLC = tested on: LXFL 529 NSCLC
# BT-549 breast = tested on: BT-549 breast
# SR leukemia = tested on: SR leukemia
# HOP-18 NSCLC = tested on: HOP-18 NSCLC
# RXF-631 renal = tested on: RXF-631 renal
# P388 leukemia = tested on: P388 leukemia
# P388/ADR leukemia = tested on: P388/ADR leukemia
# SN12K1 renal = tested on: SN12K1 renal
smiles,measurement,setting,value
N.N.N.O=[N+]([O-])[O-].O=[N+]([O-])[O-].O=[N+]([O-])[O-].O=[N+]([O-])[O-].[Co+3],TGI,786-0 renal,> 100 µM
same,GI50,KM20L2 colon,> 100 µM
same,TGI,KM20L2 colon,> 100 µM
same,GI50,LXFL 529 NSCLC,> 100 µM
same,TGI,LXFL 529 NSCLC,> 100 µM
COC(=O)C1C(C(=O)OC)N(Cc2ccccc2)C(=O)N1Cc1ccccc1 (stereo not given),TGI,BT-549 breast,> 100 µM
CCOC(=O)c1csc(NC(=O)CCN(CC)CC)n1,TGI,SR leukemia,> 100 µM
C#CCCCCC#Cc1ccccc1C(=O)OC,TGI,HOP-18 NSCLC,> 100 µM
same,TGI,KM20L2 colon,> 100 µM
same,TGI,SR leukemia,29.2 µM
CCCc1cc(=O)c2c(C)c3[nH]c4ccc(Cl)cc4c3c(C)c2[nH]1,TGI,786-0 renal,3.08 µM
same,TGI,SR leukemia,4.93 µM
O=C(O)CC/C(=N\Nc1nsc2ccccc12)c1ccccc1,TGI,HOP-18 NSCLC,> 100 µM
same,TGI,KM20L2 colon,> 100 µM
same,TGI,LXFL 529 NSCLC,> 100 µM
same,TGI,SR leukemia,93.3 µM
C=C(C(=O)C(=O)Oc1ccc(Cl)cc1)C(=O)c1ccc(C)cc1,TGI,HOP-18 NSCLC,> 100 µM
same,TGI,KM20L2 colon,> 100 µM
same,TGI,LXFL 529 NSCLC,80 µM
same,TGI,RXF-631 renal,> 100 µM
same,TGI,SR leukemia,57.6 µM
C/C(CCOC1CCCCO1)=C(\C)[Si](C)(C)C (stereo not given),TGI,KM20L2 colon,> 100 µM
same,TGI,LXFL 529 NSCLC,> 100 µM
same,TGI,SR leukemia,> 100 µM
CC(C)OP(=O)(OC(C)C)c1c(Nc2ccccc2)n[nH]c1N,TGI,SR leukemia,> 100 µM
O=C1C(Cl)=C(N2CCN(C3=C(Cl)C(=O)c4ccccc4C3=O)CC2)C(=O)c2ccccc21,TGI,786-0 renal,3.26 µM
same,TGI,BT-549 breast,3.12 µM
same,TGI,KM20L2 colon,14 µM
same,TGI,LXFL 529 NSCLC,0.793 µM
same,TGI,RXF-631 renal,3.46 µM
same,TGI,SR leukemia,0.458 µM
COCCOCOc1ccc(OCc2ccccc2)cc1,TGI,HOP-18 NSCLC,> 100 µM
same,TGI,KM20L2 colon,> 100 µM
same,TGI,P388 leukemia,60.7 µM
same,TGI,P388/ADR leukemia,89.1 µM
same,TGI,SN12K1 renal,> 100 µM
CCN1c2ccccc2-n2c(C)nnc2-c2c1n[nH]c2-c1ccccc1,TGI,SR leukemia,59.2 µM
CN(C)CCCOc1nc2c(c(=O)n(C)c(=O)n2C)n1C (tested in a mixture with another compound),TGI,786-0 renal,> 100 µM
same,TGI,BT-549 breast,> 100 µM
CC1=C(O)C(=O)[C@@H]2O[C@@H]2C1=O,TGI,HOP-18 NSCLC,30.6 µM
same,TGI,KM20L2 colon,49.4 µM
same,TGI,P388 leukemia,4.99 µM
same,TGI,P388/ADR leukemia,32.9 µM
same,TGI,SN12K1 renal,32.3 µM
C=CCN1C(=O)/C(=C/c2ccccc2)N=C1SC1OC(COC(=O)c2ccccc2)C(OC(=O)c2ccccc2)C1OC(=O)c1ccccc1 (stereo not given),TGI,BT-549 breast,> 100 µM
same,TGI,SR leukemia,> 100 µM
COc1ccc2[nH]c(O)c(/C=c3/cc4c(c(-c5cc(OC)c(OC)c(OC)c5)n3)=Nc3ccccc3-4)c2c1,GI50,BT-549 breast,5.13 µM
same,TGI,BT-549 breast,83.5 µM
same,GI50,SR leukemia,1.59 µM
same,TGI,SR leukemia,8.79 µM
